# Laboratory results: US9540343B2 (Gilead Sciences, Inc., priority 2011, dated 2017)
# What was measured:
# [1] = in vitro
# Method in brief: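 Cytoprotection read-out: CellTiter-Glo chemiluminescence after 5 days at 37 °C of HIV-IIIb-infected MT-4 cells (m.o.i. 0.003) with compound in 10-point 3-fold dilutions, quadruplicate, 10% FBS. Cytotoxicity (CC50) measured identically without virus.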
# [2] = test system: HIV-IIIb; experiment: Test A: Antiviral assay in MT4 cells; assay type: cell-based, HIV-1; settings: Human immunodeficiency virus 1, IIIB, MT4, 120 h, read-out: % inhibition at 2 μM, percent inhibition of virus-induced cell killing, from dose response curve at 2 uM drug; MT-4 cells infected with HIV-IIIb, 5 days, CellTiter-Glo
# [3] = human, uninfected MT-4 cells, CC50 (nM), same protocol as Test A, CellTiter-Glo
Structure (SMILES),"CC50 at 5 days [1, 3] [nM]",inhibition at 2 µM [2] [%],"CC50 at 5 days ([1]; human, CC50 (nM), uninfected MT-4 cells, same protocol as Test A, CellTiter-Glo) [nM]"
"O=C(Cn1nc(C(F)F)c2c1C(F)(F)C1CC21)N[C@@H](Cc1cc(F)cc(F)c1)c1ncncc1-c1cnc2[nH]ncc2c1 (stereo partly drawn) [Example 176C, N—((S)-1-(5-(1H-pyrazolo[3,4-b]pyridin-5-yl)pyrimidin-4-yl)-2-(3,5-difluorophenyl)ethyl)-2-(3-(difluoromethyl)-5,5-difluoro-3b,4,4a,5-tetrahydro-1H-cyclopropa[3,4]cyclopenta[1,2-c]pyrazol-1-yl)acetamide]",46500,59,–
"NC(=O)c1cc(-c2cccnc2[C@H](Cc2cc(F)cc(F)c2)NC(=O)Cn2nc3c(c2C(F)(F)F)COC3)ccc1F [Example 203D, (S)-5-(2-(2-(3,5-difluorophenyl)-1-(2-(3-(trifluoromethyl)-4,6-dihydro-2H-furo[3,4-c]pyrazol-2-yl)acetamido)ethyl)pyridin-3-yl)-2-fluorobenzamide]",> 53200,0,–
"NC(=O)c1cccc(-c2cccnc2[C@H](Cc2cc(F)cc(F)c2)NC(=O)Cn2ccc3ccc(=O)[nH]c32)c1 [Example 298C, (S)-3-(2-(2-(3,5-difluorophenyl)-1-(2-(6-oxo-6,7-dihydro-1H-pyrrolo[2,3-b]pyridin-1-yl)acetamido)ethyl)pyridin-3-yl)benzamide]",> 53000,61,–
"O=C(Cn1nc(C(F)F)c2c1C(F)(F)C1CC21)N[C@@H](Cc1cc(F)cc(F)c1)c1ncncc1-c1cnc2[nH]ccc2c1 (stereo partly drawn) [Example 172D, N—((S)-1-(5-(1H-pyrrolo[2,3-b]pyridin-5-yl)pyrimidin-4-yl)-2-(3,5-difluorophenyl)ethyl)-2-(3-(difluoromethyl)-5,5-difluoro-3b,4,4a,5-tetrahydro-1H-cyclopropa[3,4]cyclopenta[1,2-c]pyrazol-1-yl)acetamide]",22100,104,–
"NC(=O)c1cc(-c2cccnc2[C@H](Cc2cc(F)cc(F)c2)NC(=O)Cn2cnc3c(Cl)nccc32)ccc1F [Example 368, (S)-5-(2-(1-(2-(4-chloro-1H-imidazo[4,5-c]pyridin-1-yl)acetamido)-2-(3,5-difluorophenyl)ethyl)pyridin-3-yl)-2-fluorobenzamide]",47300,2,–
"COc1ccc(-c2cccnc2[C@H](Cc2cc(F)cc(F)c2)NC(=O)Cc2c[nH]c3cc(OC)c(OCc4ccccc4)cc23)cc1 [Example 34E, (S)-2-(5-(benzyloxy)-6-methoxy-1H-indol-3-yl)-N-(2-(3,5-difluorophenyl)-1-(3-(4-methoxyphenyl)pyridin-2-yl)ethyl)acetamide]",27800,0,–
"NC(=O)c1cc(-c2cccnc2[C@H](Cc2cc(F)cc(F)c2)NC(=O)Cc2n[nH]c3ccccc23)ccc1F [Example 469, 5-(2-(1-(2-(1H-indazol-3-yl)acetamido)-2-(3,5-difluorophenyl)ethyl)pyridin-3-yl)-2-fluorobenzamide]",> 53200,17,–
O=C(Cn1nc(C(F)F)c2c1C(F)(F)C1CC21)N[C@@H](Cc1cc(F)cc(F)c1)c1ncccc1-c1ccc2cnccc2c1 (stereo partly drawn) [Example 436],11300,20,–
"O=C(Cn1nc(C(F)F)c2c1C(F)(F)C1CC21)N[C@@H](Cc1cc(F)cc(F)c1)c1ncccc1-c1cccc2cnccc12 (stereo partly drawn) [Example 410, (S)—N-(1-(3-(quinole-5-yl)-pyridin-2-yl)-2-(3,5-difluorophenyl)ethyl)-2-(3-(difluoromethyl)-5,6-dihydro-4,5-(methano)-6,6-difluoro-cyclopenta[c]pyrazol-1(4H)-yl)acetamide]",13700,103,–
"Cc1ccc2c(c1C)NC(=O)C2CC(=O)N[C@@H](Cc1cc(F)cc(F)c1)c1ncccc1-c1ccc(F)c(C(N)=O)c1 (stereo partly drawn) [Example 221, 5-(2-((1S)-2-(3,5-difluorophenyl)-1-(2-(6,7-dimethyl-2-oxoindolin-3-yl)acetamido)ethyl)pyridin-3-yl)-2-fluorobenzamide]",40500,1,–
"CC1(O)CCCc2c(C(F)(F)F)nn(CC(=O)N[C@@H](Cc3cc(F)cc(F)c3)c3ncccc3-c3ccc(F)c(C(N)=O)c3)c21 (stereo partly drawn) [Example 356, 5-(2-((1S)-2-(3,5-difluorophenyl)-1-(2-(7-hydroxy-7-methyl-3-(trifluoromethyl)-4,5,6,7-tetrahydro-1H-indazol-1-yl)acetamido)ethyl)pyridin-3-yl)-2-fluorobenzamide]",20600,76,–
"NC(=O)c1cc(-c2cccnc2[C@H](Cc2cc(F)cc(F)c2)NC(=O)Cn2cc(C(=O)O)c(C(F)(F)F)n2)ccc1F [Example 323, (S)-1-(2-(1-(3-(3-carbamoyl-4-fluorophenyl)pyridin-2-yl)-2-(3,5-difluorophenyl)ethylamino)-2-oxoethyl)-3-(trifluoromethyl)-1H-pyrazole-4-carboxylic acid]",> 53200,0,–
"COCc1ccc(-c2cccnc2[C@H](Cc2cc(F)cc(F)c2)NC(=O)Cn2nc(C(F)F)c3c2C(F)(F)C2CC32)cc1 (stereo partly drawn) [Example 195, 2-(3-(difluoromethyl)-5,5-difluoro-3b,4,4a,5-tetrahydro-1H-cyclopropa[3,4]cyclopenta[1,2-c]pyrazol-1-yl)-N—((S)-2-(3,5-difluorophenyl)-1-(3-(4-(methoxymethyl)phenyl)pyridin-2-yl)ethyl)acetamide]",23000,85,–
"NC(=O)c1cc(-c2cccnc2[C@H](Cc2cc(F)cc(F)c2)NC(=O)Cc2c[nH]c3c(F)cc(F)cc23)ccc1F [Example 530E, (S)-5-(2-(1-(2-(5,7-difluoro-1H-indol-3-yl)acetamido)-2-(3,5-difluorophenyl)ethyl)pyridin-3-yl)-2-fluorobenzamide]",15300,55,–
"NC(=O)c1cc(-c2cccnc2[C@H](Cc2cc(F)cc(F)c2)NC(=O)Cn2nc3c(c2C(F)(F)F)CSC3)ccc1F [Example 261, (S)-5-(2-(2-(3,5-difluorophenyl)-1-(2-(3-(trifluoromethyl)-4,6-dihydro-2H-thieno[3,4-c]pyrazol-2-yl)acetamido)ethyl)pyridin-3-yl)-2-fluorobenzamide]",21200,6,–
"CC(C)(C)OC(=O)N1CCc2c(C(F)(F)F)nn(CC(=O)N[C@@H](Cc3cc(F)cc(F)c3)c3ncccc3-c3ccc(F)c(C(N)=O)c3)c2C1 [Example 378, (S)-tert-butyl 1-(2-(1-(3-(3-carbamoyl-4-fluorophenyl)pyridin-2-yl)-2-(3,5-difluorophenyl)ethylamino)-2-oxoethyl)-3-(trifluoromethyl)-4,5-dihydro-1H-pyrazolo[3,4-c]pyridine-6(7H)-carboxylate]",17100,5,–
"Cc1cc2cn(CC(=O)N[C@@H](Cc3cc(F)cc(F)c3)c3ncccc3-c3ccc(F)c(C(N)=O)c3)nc2cc1C [Example 583, (S)-5-(2-(2-(3,5-difluorophenyl)-1-(2-(5,6-dimethyl-2H-indazol-2-yl)acetamido)ethyl)pyridin-3-yl)-2-fluorobenzamide]",23200,28,–
"NCc1ccc2c(CC(=O)N[C@@H](Cc3cc(F)cc(F)c3)c3ncccc3-c3ccc(Cl)cc3)c[nH]c2c1 [Example 549, (S)-2-(6-(aminomethyl)-1H-indol-3-yl)-N-(1-(3-(4-chlorophenyl)pyridin-2-yl)-2-(3,5-difluorophenyl)ethyl)acetamide]",10200,38,–
"CC(C)(C)OC(=O)N1[C@@H](c2ccccc2)CC[C@H]1C(=O)N[C@@H](Cc1cc(F)cc(F)c1)c1ncccc1-c1ccc(F)c(C(N)=O)c1 [Example 139, (2S,5R)-tert-butyl 2-((S)-1-(3-(3-carbamoyl-4-fluorophenyl)pyridin-2-yl)-2-(3,5-difluorophenyl)ethylcarbamoyl)-5-phenylpyrrolidine-1-carboxylate]",14000,8,–
"NC(=O)c1cc(-c2cccnc2[C@H](Cc2cc(F)cc(F)c2)NC(=O)Cn2nc(C(F)(F)F)cc2C2=CCCC2)ccc1F [Example 130D, (S)-5-(2-(1-(2-(5-cyclopentenyl-3-(trifluoromethyl)-1H-pyrazol-1-yl)acetamido)-2-(3,5-difluorophenyl)ethyl)pyridin-3-yl)-2-fluorobenzamide]",15800,39,–
"CC(=O)c1cn(CC(=O)N[C@@H](Cc2cc(F)cc(F)c2)c2ncccc2-c2cccc(C(N)=O)c2)c2ccccc12 [Example 500, (S)-3-(2-(1-(2-(3-acetyl-1H-indol-1-yl)acetamido)-2-(3,5-difluorophenyl)ethyl)pyridin-3-yl)benzamide]",–,59,24300
"Cc1cc(C)c2c(c1)C(CC(=O)N[C@@H](Cc1cc(F)cc(F)c1)c1ncccc1-c1ccc(F)c(C(N)=O)c1)C(=O)N2 (stereo partly drawn) [Example 205, 5-(2-((1S)-2-(3,5-difluorophenyl)-1-(2-(5,7-dimethyl-2-oxoindolin-3-yl)acetamido)ethyl)pyridin-3-yl)-2-fluorobenzamide]",13100,12,–
"NC(=O)c1ccc(-c2cccnc2[C@H](Cc2cc(F)cc(F)c2)NC(=O)Cc2c[nH]c3ccc(O)cc23)cc1 [Example 42, (S)-4-(2-(2-(3,5-difluorophenyl)-1-(2-(5-hydroxy-1H-indol-3-yl)acetamido)ethyl)pyridin-3-yl)benzamide]",> 53000,96,–
"O=C(Cn1nc(C(F)(F)F)cc1C1CC1)N[C@@H](Cc1cc(F)cc(F)c1)c1ncccc1-c1cnc2[nH]ccc2c1 [Example 61F, (S)—N-(1-(3-(1H-pyrrolo[2,3-b]pyridin-5-yl)pyridin-2-yl)-2-(3,5-difluorophenyl)ethyl)-2-(5-cyclopropyl-3-(trifluoromethyl)-1H-pyrazol-1-yl)acetamide]",17900,74,–
